Measured values published in article PMC11357446, “Searching for Novel HDAC6/Hsp90 Dual Inhibitors with Anti-Prostate Cancer Activity: In Silico Screening and In Vitro Evaluation” (Pharmaceuticals, 2024).
Where two headings read alike, the source gives them in different places.

Tests used:
[1] = tested on: LNCaP prostate cancer cells; test: Cell viability assay (PrestoBlue) on LNCaP cells; type: cell-based, human; settings: Homo sapiens, LNCaP, 72 h, read-out: LNCaP GI50
Procedure: (§1) The human prostate cancer cell line PC-3 (ATCC Cat# CRL-1435) was grown in Ham’s F12 (Biowest, Nuaillé, France) medium, while the human prostate cancer cell line LNCaP (ATCC Cat# CRL-1740) was grown in RPMI 1640 (Biowest, Nuaillé, France) medium. Both media were supplemented with 10% Fetal Bovine Serum (FBS, Gibco, Fisher Scientific Italia, Segrate, Italy), 2 mM glutamine, 100 U/mL penicillin, and 100 μg/mL streptomycin. PC-3 and LNCaP cells were maintained at 37 °C in a humidified 5% CO2 atmosphere.
(§2) PC-3 and LNCaP cells were seeded at a density of 4000 and 6000 cells/well into a 96-well plate, respectively, together with a calibration curve of known cell numbers. The following day, the cells were treated with the indicated test compounds at different concentrations starting at 75μM with 2-fold serial dilutions. Cell viability was evaluated after 72h by colorimetric MTT (PC-3) or PrestoBlue™ (LNCaP) cell viability reagents. A total of 0.5 mg/mL of thiazolyl blue tetrazolium bromide (MTT) (Sigma-Aldrich, St. Louis, MO, USA) in Ham’s F12 medium was added to the wells, and the plate was incubated at 37 °C for 2 h. Medium containing unconverted MTT was removed, and 100 μL of MTT solvent (4 mM HCl, 0.1% NP40, in isopropyl alcohol) was added to the wells in order to solubilize MTT crystals. After 15 min of incubation at room temperature, the absorbance values at 570 nm were obtained with a Multiskan FC Microplate Photometer (Thermo Fisher Scientific, Waltham, MA, USA). PrestoBlue reagent (#A13261, Thermo Fisher Scientific, Waltham, MA, USA) was added to the medium (1:10 v/v) and incubated for 1 h at 37 °C. Cell viability was calculated by quantifying PrestoBlue reduction by measuring the absorbance at 570 and 620 nm, according to the manufacturer’s protocol. The viability of untreated cells was arbitrarily set at 100%, and the concentration at which cellular growth is inhibited by 50% (GI50) was determined. Three independent experiments were performed.

[2] = tested on: PC-3 prostate cancer cells; test: Cell viability assay (MTT) on PC-3 cells; type: cell-based, human; settings: Homo sapiens, PC-3, 72 h, read-out: PC-3 GI50
Procedure: as §1, §2

[3] = biological target: Hsp90 (UniProt ID: P07900); design: method as in ChEMBL [62]; settings: ChEMBL record on recombinant protein, ref ChEMBL [62], cited from earlier work; for IC50: read-out: Hsp90 IC50 (Standard Value)
[4] = tested on: acetylated tubulin (Ac-Tub) in LNCaP cells; test: Western blot of acetylated α-Tubulin in LNCaP cells; type: cell-based, human; settings: 24 h at GI50 concentration, normalized with Tubulin
Procedure: To assess whether the observed antiproliferative activity of the selected compounds was a consequence of HDAC6-targeting, we examined the effect of the cell treatments on the expression levels of acetylated tubulin (Ac-Tub), a well-known HDAC6 target. LNCaP and PC-3 cells were treated with the tested compounds at their GI50 concentrations, and SDS-PAGE and western blot were performed. In addition, the acetylation levels of histone H3, which are mainly regulated by HDAC1, were also evaluated in order to exclude potential class I-HDAC off-target activities. We used Tubastatin-A and Geldanamycin as reference controls for cellular effects resulting from HDAC6- and Hsp90-inhibition, respectively. The results in Figure 2 show a significant increase in α-Tubulin acetylation in LNCaP cells after treatments with compounds 8, 11 and 18. Indeed, these compounds triggered a 2.9-, 5.1-, and 2.5-fold increase, respectively, compared to the control (DMSO). […].
Figure 2 Western blot analysis and relative quantification of the expression levels of acetylated-Tubulin (Ac-TUB), acetylated H3 (Ac-H3), and HSP70 in LNCaP (A,B) and PC-3 (C,D) cells treated for 24 h at GI50 concentration. Tubastatin-A was used as HDAC6-specific positive control, Geldanamycin (GELDA) as HSP90-specific positive control, and SAHA as pan-HDAC inhibitor. Protein expression was normalized with Tubulin levels (Ac-TUB and HSP70) or total H3 (Ac-H3). Quantification is reported as fold change in treated cells versus DMSO control (CTR), arbitrarily set at 1 (one sample t-test p-values: * p < 0.05, ** p < 0.01, *** p < 0.001, **** p < 0.0001; n = 3).
Cell treatment. PC-3 and LNCaP cells were grown in 12-well tissue-culture plates and treated with test compounds at the evaluated GI50 concentration for each candidate inhibitor for 24 h. DMSO was used as a negative control, while Tubastatin-A and Geldanamycin were used as positive controls for HDAC6 and Hsp90 inhibition, respectively. Vorinostat (SAHA) was used as a pan-HDACi control. […] Protein quantitation was performed with Pierce Detergent Compatible Bradford Assay (#23246, Thermo Fisher Scientific, MA, USA), and equivalent amounts of cellular extracts were resolved by SDS-PAGE, transferred to PVDF or Nitrocellulose membrane with Trans-Blot Turbo Transfer System (Bio-Rad, Hercules, CA, USA), and immunoblotted with the following primary antibodies, diluted 1:1000 in 1× TBS with 1 mg/mL BSA: Anti-Histone H3 (#PA5-16183, Invitrogen, Thermo Fisher Scientific, MA, USA), Anti-acetylated histone H3 (#sc-518011, Santa Cruz Biotechnology, Inc., Dallas, TX, USA), Anti-Tubulin (#E-AB-20073, Elabscience, Houston, TX, USA), Anti-acetylated α-tubulin (#sc-23950, Santa Cruz), and Anti-HSP70 (#4872S, Cell Signaling Technology, Inc., Danvers, MA, USA). […]

[5] = biological target: T1, HDAC6 recombinant enzyme (Homo sapiens, UniProt Q9UBN7); test: Fluorimetric HDAC6 assay; type: biochemical; settings: singlicate
T1 sequence (Q9UBN7 1-1215): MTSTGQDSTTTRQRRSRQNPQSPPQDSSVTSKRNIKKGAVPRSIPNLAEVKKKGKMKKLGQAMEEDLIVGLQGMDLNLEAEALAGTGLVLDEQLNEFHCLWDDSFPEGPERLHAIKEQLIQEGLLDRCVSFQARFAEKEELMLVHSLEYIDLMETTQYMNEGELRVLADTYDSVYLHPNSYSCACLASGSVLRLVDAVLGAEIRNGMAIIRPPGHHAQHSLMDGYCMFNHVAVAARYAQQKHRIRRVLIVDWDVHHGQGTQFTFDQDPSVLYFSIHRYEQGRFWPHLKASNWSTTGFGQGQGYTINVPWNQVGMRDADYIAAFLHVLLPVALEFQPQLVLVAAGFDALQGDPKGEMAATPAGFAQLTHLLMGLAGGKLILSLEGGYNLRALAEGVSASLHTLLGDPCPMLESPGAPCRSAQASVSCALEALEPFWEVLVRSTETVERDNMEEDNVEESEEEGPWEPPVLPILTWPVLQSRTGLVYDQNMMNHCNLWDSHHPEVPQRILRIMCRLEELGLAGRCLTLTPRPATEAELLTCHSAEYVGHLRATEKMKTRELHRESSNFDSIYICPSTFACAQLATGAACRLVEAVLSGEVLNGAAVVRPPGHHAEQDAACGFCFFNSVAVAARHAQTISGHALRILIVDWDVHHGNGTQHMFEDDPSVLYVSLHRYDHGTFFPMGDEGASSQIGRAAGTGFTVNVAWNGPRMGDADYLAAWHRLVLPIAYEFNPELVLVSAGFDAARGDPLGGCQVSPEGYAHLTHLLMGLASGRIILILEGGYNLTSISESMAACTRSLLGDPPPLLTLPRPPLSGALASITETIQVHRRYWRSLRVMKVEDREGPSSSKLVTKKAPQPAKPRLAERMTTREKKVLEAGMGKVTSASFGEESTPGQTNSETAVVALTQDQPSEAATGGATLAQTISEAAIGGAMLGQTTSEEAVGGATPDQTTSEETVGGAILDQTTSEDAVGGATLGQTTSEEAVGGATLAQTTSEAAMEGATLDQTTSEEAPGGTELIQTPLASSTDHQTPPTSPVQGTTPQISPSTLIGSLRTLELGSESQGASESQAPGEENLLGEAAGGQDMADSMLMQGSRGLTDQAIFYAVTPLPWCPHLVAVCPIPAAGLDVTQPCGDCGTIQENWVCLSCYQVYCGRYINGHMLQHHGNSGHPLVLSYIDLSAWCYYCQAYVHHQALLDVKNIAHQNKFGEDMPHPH
Procedure: In vitro assessments of compounds on the HDAC6 enzyme were performed, as described in our previous works. […] The blank employed for curve fitting was evaluated on a solution of the buffer containing a concentration of […] of DMSO. IC50 values were calculated by using the GraphPad Prism 4 program based on a sigmoidal dose–response equation.

[6] = biological target: HDAC6 (UniProt ID: Q9UBN7); design: method as in ChEMBL [62]; settings: ChEMBL record on recombinant protein; ref ChEMBL [62]; read-out: HDAC6 IC50 (Standard Value); cited from earlier work
[7] = 72 h treatment, PrestoBlue, mean of three independent experiments ± SEM
[8] = 72 h treatment, MTT, mean of three independent experiments ± SEM

SMILES: O=C(CCCCCCC(=O)Nc1ccccc1)NO [SAHA, Vorinostat]
- GI50 [1]: 1300 ± 300 nM
- GI50 [2]: 1900 ± 200 nM

SMILES: CC(C)c1cc(-c2onc(C(=O)N[C@@H](C(=O)N3CC(F)(F)C3)C(C)C)c2-c2ccc(CN3CCOCC3)cc2)c(O)cc1O [CHEMBL4096929]
- IC50 [3]: 39 nM

SMILES: CN1CCc2c(c3ccccc3n2Cc2ccc(C(=O)NO)cc2)C1 [Tubastatin-A]
- α-Tubulin acetylation, fold increase compared to the control (DMSO) [4]: 3.3 fold
- GI50 [1, 7]: 5900 ± 1500 nM
- GI50 [2, 8]: 11100 ± 1600 nM

SMILES: CCNC(=O)c1noc(-c2cc(Cl)c(O)cc2O)c1-c1ccc(CN2CCOCC2)cc1C [CHEMBL4060353]
- Ki ([3]; read-out: Hsp90 Ki (Standard Value)): 32 nM

SMILES: N#Cc1ccc(NC(=O)c2cccc(-c3noc(C(F)(F)F)n3)c2)c(O)c1 [Compound 4]
- GI50 [1, 7]: 9500 ± 700 nM
- GI50 [2, 8]: 9500 ± 500 nM
- IC50 [5]: 17000 nM

SMILES: COC1=C2C[C@@H](C)C[C@H](OC)[C@H](O)[C@@H](C)/C=C(\C)[C@H](OC(N)=O)[C@@H](OC)/C=C\C=C(/C)C(=O)NC(=CC1=O)C2=O [Geldanamycin]
- GI50 [1, 7]: 50 ± 20 nM
- GI50 [2, 8]: 30 ± 20 nM

SMILES: CC(C)c1cc(C(=O)N2Cc3ccc(NCc4ccc(C(=O)NO)cc4)cc3C2)c(O)cc1O [CHEMBL4782478]
- IC50 [3]: 66 nM
- IC50 [6]: 33.3 nM
